The record followed here is ChEMBL document CHEMBL5244215, “Recent advancement of piperidine moiety in treatment of cancer- A review” (Eur J Med Chem, 2018).

Data set [1] relates to MCF7. Kind of data set: cells. It counts as functional. As to conditions: Homo sapiens, time 48 hrs.
Description: Growth inhibition at human MCF7 cells incubated for 48 hrs by SRB assay
The test system of data set [2] is SK-N-SH. Kind of data set: cells. It is filed as functional, cell-based. As to conditions: Homo sapiens, 48 h.
Data set [3] concerns A549. Kind of data set: cells. It counts as functional, cell-based. Conditions: Homo sapiens, A549, 48 h.
Data set [4] deals with SiHa. Kind of data set: cells. It is filed as functional. Conditions: Homo sapiens, time 48 hrs.
Description: Growth inhibition at human SiHa cells incubated for 48 hrs by SRB assay
Data set [5] deals with SNB-19. Nature of the data set: cells. As to conditions: Homo sapiens, time 72 hrs, read-out: ED50 (the source's name). It counts as functional.
Description: Antiproliferative activity against human SNB-19 cells assessed as cell growth inhibition incubated for 72 hrs by WST-1 assay
The test system of data set [6] is P388. Nature of the data set: cells. It counts as functional, cell-based. Conditions: Mus musculus, P388, 48 h.
The test system of data set [7] is HCT-116. Nature of the data set: cells. It is filed as functional, cell-based. As to conditions: Homo sapiens, HCT-116, 48 h.
Data set [8] relates to KM12. Kind of data set: cells. Conditions: Homo sapiens, KM12, 48 h. It counts as functional, cell-based.
Data set [9] concerns HSC-4. Kind of data set: cells. It counts as functional. As to conditions: Homo sapiens, time 48 hrs.
Description: Cytotoxicity against human HSC-4 cells assessed as reduction in cell viability incubated for 48 hrs by MTT assay
Data set [10] relates to HSC-2. Kind of data set: cells. It is filed as functional. As to conditions: Homo sapiens, time 48 hrs.
Description: Cytotoxicity against human HSC-2 cells assessed as reduction in cell viability incubated for 48 hrs by MTT assay
Data set [11] has as its system HSC-3. Nature of the data set: cells. It is filed as functional. As to conditions: Homo sapiens, time 48 hrs.
Description: Cytotoxicity against human HSC-3 cells assessed as reduction in cell viability incubated for 48 hrs by MTT assay
The test system of data set [12] is Ca9-22. Nature of the data set: cells. It counts as functional. As to conditions: Homo sapiens, time 48 hrs.
Description: Cytotoxicity against human Ca9-22 cells assessed as reduction in cell viability incubated for 48 hrs by MTT assay
Data set [13] deals with CCRF-CEM. Nature of the data set: cells. As to conditions: Homo sapiens. It is filed as functional, cell-based.
Description: Antileukemic activity against human CEM cells assessed as inhibition of cell growth incubated for 48 to 72 hrs by MTT assay
In data set [14] the test system is K562. Kind of data set: cells. It counts as functional, cell-based. As to conditions: Homo sapiens.
Description: Antileukemic activity against human K562 cells assessed as inhibition of cell growth incubated for 48 to 72 hrs by MTT assay
Data set [15] is described as follows: cells. It counts as functional, cell-based. As to conditions: Homo sapiens, QBC939, light or radiation study, 24 h.
Description: Phototoxicity against human QBC939 cells assessed as inhibition of cell growth incubated for 24 hrs followed by irradiated with 54 J/cm^2 of light dose and measured after 24 hrs by MTT colorimetric assay
Data set [16] relates to COLO 205. Kind of data set: cells. It is filed as functional, cell-based. Conditions: Homo sapiens, COLO 205, 0.5 h.
Description: Cytotoxicity against human COLO 205 cells assessed as inhibition of cell growth incubated for 30 mins by SRB assay
In data set [17] the test system is HepG2. Kind of data set: cells. It is filed as functional, cell-based. Conditions: Homo sapiens, HepG2, 48 h.
Description: Antiproliferative activity against human HepG2 cells assessed as reduction in cell viability incubated for 48 hrs by MTT spectrophotometric assay
Data set [18] is described as follows: in vitro. Conditions: human, wi-38.
Data set [19] deals with IMR-32. Nature of the data set: cells. Conditions: Homo sapiens, IMR-32, 0.5 h. It counts as functional, cell-based.
Description: Cytotoxicity against human IMR-32 cells assessed as inhibition of cell growth incubated for 30 mins by SRB assay
The subject of data set [20] is BEL-7404 tumor cell line. Nature of the data set: cells. It is filed as functional, cell-based. As to conditions: Homo sapiens, BEL-7404, 72 h.
Description: Antiproliferative activity against human BEL-7404 tumor cell line assessed as inhibition of cell proliferation incubated for 72 hrs by MTT assay
Data set [21] relates to SW-620. Kind of data set: cells. It counts as functional, cell-based. As to conditions: Homo sapiens, SW-620, 48 h.
For data set [22], the system named is HCC 2998. Nature of the data set: cells. It is filed as functional, cell-based. Conditions: Homo sapiens, HCC 2998, 48 h.
Data set [23] has as its system PANC-1. Kind of data set: cells. As to conditions: Homo sapiens, time 48 hrs. It is filed as functional.
Description: Growth inhibition at human PANC-1 cells incubated for 48 hrs by SRB assay
For data set [24], the system named is IMR-32. Nature of the data set: cells. It counts as functional. Conditions: Homo sapiens, time 48 hrs.
Description: Growth inhibition at human IMR-32 cells incubated for 48 hrs by SRB assay
Data set [25] concerns NCI-H3122. Kind of data set: cells. Conditions: Homo sapiens. It is filed as functional, cell-based.
Description: Antiproliferative activity against human NCI-H3122 cells assessed as inhibition of cell proliferation
In data set [26] the test system is REH. Nature of the data set: cells. It counts as functional, cell-based. Conditions: Homo sapiens.
Description: Antiproliferative activity against human REH cells assessed as inhibition of cell proliferation incubated for 48 to 72 hrs by MTT assay
Data set [27] concerns K562. Kind of data set: cells. It is filed as functional, cell-based. Conditions: Homo sapiens. The source holds these as a separate data set.
Description: Antiproliferative activity against human K562 cells assessed as inhibition of cell proliferation incubated for 48 to 72 hrs by MTT assay
Data set [28] concerns CCRF-CEM. Nature of the data set: cells. As to conditions: Homo sapiens, 48 h. It counts as functional, cell-based.
The nature of data set [29]: animal or person. It is filed as functional, organism-based. Conditions: Homo sapiens, QBC939, light or radiation study, 336 h.
The test system of data set [30] is COLO 205. Kind of data set: cells. It is filed as functional, cell-based. As to conditions: Homo sapiens, COLO 205, 48 h.
The test system of data set [31] is HT-29. Kind of data set: cells. It is filed as functional, cell-based. Conditions: Homo sapiens, HT-29, 48 h.
Data set [32] deals with HCT-15. Nature of the data set: cells. As to conditions: Homo sapiens, HCT-15, 48 h. It is filed as functional, cell-based.
Data set [33] concerns MDA-MB-231. Kind of data set: cells. Conditions: Homo sapiens, time 48 hrs. It counts as functional.
Description: Growth inhibition at human MDA-MB-231 cells incubated for 48 hrs by SRB assay
Data set [34] has as its system K562. Nature of the data set: cells. It is filed as functional, cell-based. Conditions: Homo sapiens, K562, 48 h.
Data set [35] has as its system L1210. Nature of the data set: cells. It is filed as functional, cell-based. As to conditions: Mus musculus, L1210, 48 h.
Data set [36] in a line: cells. It counts as functional, cell-based, Molt 4/C8. As to conditions: Homo sapiens, Molt4/C8, 48 h.

In brackets after ≈: the same amount, converted by molar mass. Counter-ions that a name gives are not always drawn. Some results are limits rather than exact numbers.

Consider `O=C(/C=C/c1ccccc1)c1ccc(OCCN2CCCCC2)cc1`, for which the GI50 (usually the concentration at which growth is held to half of that of the control) in data set [1] was < 10 µM.
With `COC(=O)C1C(=O)CC(c2ccc(OC)cc2)N(c2ccccc2)C1c1ccc(OC)cc1` (stereo not drawn), the IC50 (in general, the concentration that gives 50% inhibition) came out at 11 µM in [2] and 27 µM in [3].
Turning to `COC(=O)c1ccc(NC(=O)NC2CCN(c3cc(-c4ccc(OC)cc4F)ncn3)CC2)cc1`, in data set [4], growth was halved (GI50) at 0.22 µM.
As for `Cn1cnc2nc(SCCN3CCCCC3)nc(SCCN3CCCCC3)c21`, the EC50 in data set [5] was 9.18 µg/mL (≈ 21.8 µM).
As for `O=C1/C(=C/c2ccccc2)CN(C(=O)c2ccc(/C=C/C(=O)c3ccc([N+](=O)[O-])cc3)cc2)C/C1=C\c1ccccc1`, the IC50 in data set [6] was 0.221 µM.
With `CCN1CC[C@@](O)(c2ccc(Oc3ccc(Cl)cc3)cc2)[C@H](C(=O)c2ccc(Oc3ccc(Cl)cc3)cc2)C1`, the values for the IC50 in data set [7] and in data set [8] were 3.8 µM and 2.57 µM, respectively.
For `COc1cc(/C=C2\Cc3ccccc3C2=O)cc(CN2CCCCC2)c1O`, the CC50 (commonly the concentration at which the toxic effect on the cells reaches its halfway point) came out at 9.9 µM in data set [9], 7.7 µM in data set [10], 8.4 µM in [11] and 6.5 µM in data set [12].
Regarding `COc1ccc(C(=O)c2ccc(OCC(=O)N3CCC(CCCC4CCN(C(=O)Nc5ccc(Cl)cc5)CC4)CC3)cc2)c(OC)c1`, the IC50 in [13] was found to be 2 µM; in [14], 1.6 µM.
For the compound `O=C(/C=C/c1ccc(Cl)cc1)c1ccc(OCCN2CCCCC2)cc1`, the GI50 in [1] is < 10 µM.
`COC(C)c1c(C)c2cc3nc(cc4[nH]c(cc5nc(cc1[nH]2)C(C)=C5CCC(=O)O)c(CCC(=O)O)c4C)C(C)=C3C(C)O` (stereo not drawn): in data set [15], inhibition was half-maximal at 9.46 µM (IC50).
For `CN1O[C@@H](c2ccccc2)[C@@H]2CN(c3ccccc3)c3oc4ccccc4c(=O)c3[C@@H]21`, in data set [16], the IC50 amounted to 12.6 µM.
In data set [17], `O=C(NC1CCN(Cc2c(F)cccc2F)CC1)c1ccc(Oc2ccccc2)cc1` yielded an IC50 of 0.25 µM. That is a sub-micromolar value.
Regarding `COc1cc(/C=C/C(=O)N2CCC=C(Cl)C2=O)cc(OC)c1OC`, the IC50 at 48 h in data set [18] is > 60 µM.
In the case of `CN1OC[C@@H]2CN(c3ccccc3)c3oc4cc(Cl)ccc4c(=O)c3[C@@H]21`, the IC50 in data set [19] was found to be 10.1 µM. That is a double-digit micromolar value.
`CCOC(=O)C12CC3CC(C1)CC(C(=O)OC1CC(C)(C)N(O)C(C)(C)C1)(C3)C2` gave an IC50 in [20] of 4.33 µM.
With `CCN1CC[C@@](O)(c2ccc(Oc3ccccc3)cc2)[C@H](C(=O)c2ccc(Oc3ccccc3)cc2)C1`, the half-maximal inhibitory concentration (IC50) in data set [21] came to 6.61 µM; in [22] it was 12 µM.
`COc1ccc(CNC(=O)NC2CCN(c3cc(-c4ccc(OC)cc4F)ncn3)CC2)cc1` had a GI50 in data set [23] of 0.47 µM.
The compound `O=C(Nc1ccccc1)NC1CCN(c2cc(-c3ccc(Oc4ccccc4)cc3)ncn2)CC1` showed a GI50 in data set [24] of 0.65 µM.
As to `COc1ccc(/C=C/C(=O)c2ccc(OCCN3CCCCC3)cc2)cc1`, the GI50 in data set [1] was < 10 µM.
As to `COc1cc(C2CCN(C(=O)CO)CC2)ccc1Nc1ncc(C(F)(F)F)c(Nc2ccc(C3CCN(C(=O)CO)CC3)cc2OC)n1`, in data set [25], the IC50 was 0.046 µM. In other words, the double-digit nanomolar range.
Regarding `O=C(c1ccc(F)c([N+](=O)[O-])c1)N1CCC(CCCC2CCNCC2)CC1`, the IC50 in data set [26] turned out to be 2.3 µM; in data set [27], 2 µM.
In data set [28], `O=C1/C(=C/c2ccccc2)CN(C(=O)c2ccc(/C=C/C(=O)c3ccccc3)cc2)C/C1=C\c1ccccc1` yielded an IC50 of 1.58 µM.
With `COc1ccc(/C2=C3\C=CC(=N3)/C(c3ccc(OC)cc3)=c3/cc/c([nH]3)=C(\c3ccc(OC)cc3)C3=NC(C(N4CCCCC4)=C3)C(c3ccc(OC)cc3)c3ccc2[nH]3)cc1` (stereo not drawn), the IC50 in data set [29] was 5.48 µM.
Take `CCN1CC[C@@](O)(c2ccc(Oc3ccc(C)cc3)cc2)[C@H](C(=O)c2ccc(Oc3ccc(C)cc3)cc2)C1`: the IC50 came to 12 µM in data set [30], 3.31 µM in data set [31] and 3.98 µM in data set [32].
As for `O=C(/C=C/c1ccccc1)c1ccc(OCCN2CCCC2)cc1`, in data set [1], the GI50 is < 10 µM.
With `COc1ccc(CNC(=O)NC2CCN(c3cc(-c4ccc(Oc5ccccc5)cc4)ncn3)CC2)cc1`, the GI50 in data set [33] turned out to be 0.2 µM. This counts as sub-micromolar.
`COc1cccc2c1C(=O)c1c(O)c3c(c(O)c1C2=O)C[C@@](O)(C(=O)CO)C[C@@H]3O[C@H]1C[C@H](N)[C@H](O)[C@H](C)O1` [DOXORUBICIN HYDROCHLORIDE]: the IC50 in [19] was determined as 1.7 µM.
In [34], `c1cc2c(cc1CN1CCC(=NN=C3CCN(Cc4ccc5c(c4)OCO5)CC3)CC1)OCO2` displayed an IC50 of 6.35 µg/mL (≈ 13.7 µM).
`O=C1/C(=C/c2ccccc2)CN(C(=O)c2ccc(/C=C/C(=O)c3ccc(O)cc3)cc2)C/C1=C\c1ccccc1`: the IC50 was 5.34 µM in [35] and 1.6 µM in [36].
As for `O=C(/C=C/c1ccc(OCCN2CCCCC2)cc1)c1ccccc1`, in data set [1], the GI50 was < 10 µM.
In the case of `COc1ccc(C(=O)c2ccc(OCC(=O)N3CCC(CCCC4CCN(C(=O)Nc5ccc(F)cc5)CC4)CC3)cc2)c(OC)c1`, the IC50 in [13] came out at 2.3 µM; in data set [14], 2.2 µM.
On the same counts, the results for `COc1ccc(C(=O)c2ccc(OCC(=O)N3CCC(CCCC4CCN(C(=S)Nc5ccc(Cl)cc5)CC4)CC3)cc2)c(OC)c1` are 2.1 µM and 2.1 µM.
As for `O=C(/C=C/c1ccc(OCCN2CCCCC2)cc1)c1ccc(F)cc1`, the GI50 in [1] is < 10 µM.
For `O=c1[nH]cc(F)c(=O)[nH]1` [FLUOROURACIL], the IC50 in [34] worked out at 8.48 µg/mL (≈ 65.2 µM); in data set [16], 27.7 µM.
